Data reported in patent publication US8143276B2, “4-thio substituted quinoline and naphthyridine compounds” (XTL Biopharmaceuticals Ltd., priority 2007, dated 2012).

Assays:
[1] = tested on: HCV Replicon; assay: HCV Replicon Luciferase Assay; type: cell-based, Hepatitis C virus; conditions: Hepatitis C virus; Huh-Luc-Neo cells, 48 h incubation, luciferase reporter; read-out: Replicon Inhibition*, Luciferase
Protocol: The identification of inhibitors of HCV replication and/or proliferation has been facilitated by the development of a cell-based system to study HCV replication. Inhibition of HCV replication may be performed using the HCV Replicon Assay developed in the laboratories of Bartenschlager (Lohman et al, Science 285, 110-113, 1999) and Rice (Blight et al, Science 290, 1972-1974, 2000). The assay is performed using the Huh-Luc-Neo cell line (Lohman et al, Science 285, 110-113, 1999). Huh-Luc-Neo cells are a human hepatoma cell line (Huh-7) stably expressing a bi-cistronic subgenomic replicon containing the HCV IRES in which the structural proteins of HCV have been deleted and replaced by a construct containing sequences coding for the firefly luciferase reporter gene, the neomycin selectable marker and the EMCV IRES to direct expression of a truncated HCV genome expressing the […] NS3, NS4A, NS4B, NS5A, and NS5B. HCV targets through which inhibitors could act to inhibit replication include the NS3 protease, the helicase/ATPase, NS5A, the NS5B-RNA dependent RNA polymerase, and the HCV IRES.
(§1) Expression of HCV IRES driven luciferase reporter activity and HCV RNA is measured to obtain indirect and direct measures of replication of HCV RNA respectively. Inhibitors of HCV replication and/or proliferation are determined by initially identifying molecules that inhibit expression of the HCV IRES driven luciferase reporter in this HCV Replicon Luciferase Assay. Cell viability assays and control cell based luciferase assays are then run on hits identified in the HCV Replicon Luciferase Assay to eliminate cytoxic compounds and non-specific compounds which act by inhibiting the luciferase enzyme.
(§2) Day 0, Cell Seeding and Compound Treatment: Huh-Luc-Neo Cells are seeded at 25,000/well in an opaque-walled 96 plate with Growth Medium (DMEM phenol red free+PS+2 mM glutamine; 100 μl/well). The compounds to be tested are added to the experimental wells (10 μl/well at 10× assay concentration) and the cells are then incubated (5% CO2, 37° C.) for 48 h.
Day 2, Reagent Preparation and Luciferase Assay: The Bright-Glo Luciferase Assay Buffer (Promega) is thawed and equilibrated to room temperature prior to use. The lyophilized Bright-Glo Luciferase Assay Substrate is equilibrated to room temperature prior to use. 10 ml of Bright-Glo Luciferase Assay Buffer is transferred to 1 vial of Bright-Glo Luciferase Assay Substrate bottle and mixed by gently with a Vortex. 100 μl of Bright-Glo Luciferase Assay reagent (Bright-Glo Luciferase Assay Buffer+Bright-Glo Luciferase Assay Substrate Mixture) is added to each well. The well contents are mixed for 5 min. on an orbital shaker at room temperature to induce cell lysis and the luminescence is then measured using a luminometer. The data is analyzed and IC50s are determined using GraphPad Prism 4 software. Hits validated in the Replicon Luciferase assay have IC50s<8.0 μM and show <30% inhibition of Cell Viability at a compound concentration of 100 μM (Cell Titer Glow Assay, cell viability assay conditions identical to HCV Replicon Luciferase Assay conditions).

[2] = tested on: HCV RNA; assay: HCV Replicon RNA Assay (Taqman); type: cell-based, Hepatitis C virus; conditions: Hepatitis C virus; Huh-Luc-Neo cells, compound re-added at 24 h, HCV RNA by quantitative PCR; read-out: Replicon Inhibition*, Taqman
Protocol: as §1
as §2, with “C.).” for “C.) for 48 h.”
Day 1, Media Change and Compound Treatment: 24 hours after the initial compound treatment the cell culture media is aspirated from the wells and fresh Growth Medium is added (DMEM phenol red free+PS+2 mM glutamine; 100 μl/well). The compounds to be tested are then added to the appropriate experimental wells (10 μl/well at 10× assay concentration) and the cells are then incubated (5% CO2, 37° C.) for an additional 24 hrs.
Day 2, RNA Isolation and cDNA Synthesis: The cells are washed with 1× Phosphate Buffered Saline (PBS) once.
Day 3, Quantitative PCR Based Measurement of HCV RNA (Taqman Assay): Quantitative PCR analysis to measure HCV RNA expression from cDNA synthesized on Day 2 is performed using the ABI 9700 HT Sequence Detection System (Applied Biosystems) as previously described (Lohman et al, Science 285, 110-113, 1999). The data is analyzed and IC50s are determined using GraphPad Prism 4 software. Hits validated in the Replicon RNA Assay have IC50s<8.0 μM and show <30% inhibition of Cell Viability at a compound concentration of 50 μM (Cell Titer Glow Assay, cell viability assay conditions identical to HCV Replicon RNA Assay conditions).

[3] = CellTiter-Glo Cell Viability Assay; type: cell-based, human; conditions: human, Huh-Luc-Neo cells, read-out: Cytotoxicity*
Protocol: as §2, with “ul/well).” for “μl/well).”, “tested for inhibition of cell viability” for “tested”
(§3) Day 2, Reagent Preparation and Assay: The CellTiter-Glo Buffer is thawed and equilibrated to room temperature prior to use. The lyophilized CellTiter-Glo Substrate is equilibrated to room temperature prior to use. 10 ml of CellTiter-Glo Buffer is transferred to 1 vial of CellTiter-Glo Substrate and mixed by gently with a Vortex. 100 μl of CellTiter-Glo Assay reagent (CellTiter-Glo Buffer+CellTiter-Glo Substrate Mixture) is added to each well. The well contents are mixed for 5 min. on an orbital shaker at room temperature to induce cell lysis and the luminescence is then measured using a luminometer.

[4] = tested on: Huh-Luc-Neo Cells; assay: CellTiter-Glo Cell Viability Assay; type: cell-based, human; conditions: 48 h, read-out: Cytotoxicity*
Protocol: as §2, with “ul/well).” for “μl/well).”, “tested for inhibition of cell viability” for “tested”
as §3

Cn1c(=O)cc(Sc2ccc(Br)cc2)c2ccccc21 [compound 001]
IC50 [1]: 1 to 10 µM | IC50 [2]: < 1 µM | IC50 at 48 h [3]: > 100 µM

Cn1c(=O)cc(Sc2ccc(Cl)cc2)c2ccccc21 [compound 002]
IC50 [1]: 1 to 10 µM | IC50 [2]: 1 to 10 µM | IC50 at 48 h [3]: > 100 µM

Cn1c(=O)cc(Sc2ccc(F)cc2)c2ccccc21 [compound 003]
IC50 [1]: 1 to 10 µM | IC50 [2]: 1 to 10 µM | IC50 at 48 h [3]: > 100 µM

Cn1c(=O)cc(Sc2c(Cl)cccc2Cl)c2ccccc21 [compound 004]
IC50 [1]: 1 to 10 µM | IC50 [2]: < 1 µM | IC50 at 48 h [3]: > 100 µM

Cn1c(=O)cc(Sc2ccccc2F)c2ccccc21 [compound 005]
IC50 [1]: 1 to 10 µM | IC50 [2]: 1 to 10 µM | IC50 [4]: 10 to 100 µM

Cn1c(=O)cc(Sc2cc(Cl)ccc2Cl)c2ccccc21 [compound 006]
IC50 [1]: 10 to 100 µM | IC50 [2]: 1 to 10 µM | IC50 at 48 h [3]: > 100 µM

Cn1c(=O)cc(Sc2cccc(F)c2)c2ccccc21 [compound 007]
IC50 [1]: 1 to 10 µM | IC50 [2]: 1 to 10 µM | IC50 at 48 h [3]: > 100 µM

Cn1c(=O)cc(Sc2ccc(N)cc2)c2ccccc21 [compound 009]
IC50 [1]: < 1 µM | IC50 [2]: < 1 µM | IC50 at 48 h [3]: > 100 µM

CCn1c(=O)cc(Sc2ccc(Br)cc2)c2ccccc21 [compound 010]
IC50 [1]: 1 to 10 µM | IC50 [2]: < 1 µM | IC50 at 48 h [3]: > 100 µM

Cn1c(=O)cc(Sc2ccc(Br)cc2)c2cc(Cl)ccc21 [compound 011]
IC50 [1]: 1 to 10 µM | IC50 [2]: 1 to 10 µM | IC50 at 48 h [3]: > 100 µM

COc1ccc(Sc2cc(=O)n(C)c3ccccc23)cc1 [compound 012]
IC50 [1]: 1 to 10 µM | IC50 [2]: 10 to 100 µM | IC50 at 48 h [3]: > 100 µM

Cn1c(=O)cc(Sc2ccc(C(C)(C)C)cc2)c2ccccc21 [compound 013]
IC50 [1]: 1 to 10 µM | IC50 [2]: < 1 µM | IC50 at 48 h [3]: > 100 µM

Cn1c(=O)cc(Sc2ccc(I)cc2)c2ccccc21 [compound 014]
IC50 [1]: 1 to 10 µM | IC50 [2]: < 1 µM | IC50 at 48 h [3]: > 100 µM

Cn1c(=O)cc(Sc2ccc(Cl)cc2)c2cc(F)ccc21 [compound 015]
IC50 [1]: 1 to 10 µM | IC50 [2]: 1 to 10 µM | IC50 at 48 h [3]: > 100 µM

Cc1ccc(Sc2cc(=O)n(C)c3ccc(F)cc23)cc1 [compound 016]
IC50 [1]: 1 to 10 µM | IC50 [2]: 1 to 10 µM | IC50 at 48 h [3]: > 100 µM

CC(=O)Nc1ccc(Sc2cc(=O)n(C)c3ccccc23)cc1 [compound 017]
IC50 [1]: 1 to 10 µM | IC50 [2]: 1 to 10 µM | IC50 at 48 h [3]: > 100 µM

Cn1c(=O)cc(Sc2ccc(F)cc2)c2cc(F)ccc21 [compound 018]
IC50 [1]: 1 to 10 µM | IC50 [2]: 1 to 10 µM | IC50 at 48 h [3]: > 100 µM

Cn1c(=O)cc(Sc2ccc(N)cc2)c2cccnc21 [compound 019]
IC50 [1]: < 1 µM | IC50 [2]: 1 to 10 µM | IC50 at 48 h [3]: > 100 µM

Cc1ccc(Sc2cc(=O)n(C)c3ncccc23)cc1 [compound 020]
IC50 [1]: < 1 µM | IC50 [2]: 1 to 10 µM | IC50 at 48 h [3]: > 100 µM

COCCOCC(=O)Nc1ccc(Sc2cc(=O)n(C)c3ccccc23)cc1 [compound 021]
IC50 [1]: < 1 µM | IC50 [2]: 1 to 10 µM | IC50 at 48 h [3]: > 100 µM

Cn1c(=O)cc(Sc2ccc(NC(=O)[C@H](Cc3ccccc3)NC(=O)OC(C)(C)C)cc2)c2ccccc21 [compound 022]
IC50 [1]: 1 to 10 µM | IC50 [2]: 1 to 10 µM | IC50 at 48 h [3]: > 100 µM

C[C@H](OCc1ccccc1)[C@@H](NC(=O)OC(C)(C)C)C(=O)Nc1ccc(Sc2cc(=O)n(C)c3ccccc23)cc1 [compound 023]
IC50 [1]: 1 to 10 µM | IC50 [2]: 1 to 10 µM | IC50 at 48 h [3]: > 100 µM

Cn1c(=O)cc(Sc2ccc(NC(=O)[C@@H](NC(=O)OC(C)(C)C)C3CCCCC3)cc2)c2ccccc21 [compound 024]
IC50 [1]: < 1 µM | IC50 [2]: 1 to 10 µM | IC50 at 48 h [3]: > 100 µM

Cn1c(=O)cc(Sc2ccc(NC(=O)[C@H](Cc3ccc(F)cc3)NC(=O)OC(C)(C)C)cc2)c2ccccc21 [compound 025]
IC50 [1]: 1 to 10 µM | IC50 [2]: 1 to 10 µM | IC50 at 48 h [3]: > 100 µM

Cc1ccc2c(c1)c(Sc1ccc(F)cc1)cc(=O)n2C [compound 026]
IC50 [1]: < 1 µM | IC50 [2]: < 1 µM | IC50 at 48 h [3]: 10 to 100 µM

Cn1c(=O)cc(Sc2ccc(N)cc2)c2ccc(Cl)cc21 [compound 027]
IC50 [1]: < 1 µM | IC50 [2]: < 1 µM | IC50 at 48 h [3]: 10 to 100 µM

Cc1ccc2c(c1)c(Sc1ccc(Cl)cc1)cc(=O)n2C [compound 028]
IC50 [1]: < 1 µM | IC50 [2]: < 1 µM | IC50 at 48 h [3]: 10 to 100 µM

COc1ccc2c(c1)c(Sc1ccc(C)cc1)cc(=O)n2C [compound 029]
IC50 [1]: < 1 µM | IC50 [2]: < 1 µM | IC50 at 48 h [3]: > 100 µM

COc1ccc2c(c1)c(Sc1ccc(N)cc1)cc(=O)n2C [compound 030]
IC50 [1]: < 1 µM | IC50 [2]: < 1 µM | IC50 at 48 h [3]: 10 to 100 µM

Cc1ccc2c(c1)c(Sc1ccc(Br)cc1)cc(=O)n2C [compound 031]
IC50 [1]: < 1 µM | IC50 [2]: < 1 µM | IC50 at 48 h [3]: 10 to 100 µM

Cc1ccc(Sc2cc(=O)n(C)c3ccc(C)cc23)cc1 [compound 032]
IC50 [1]: < 1 µM | IC50 [2]: < 1 µM | IC50 at 48 h [3]: 10 to 100 µM

Cc1ccc2c(c1)c(Sc1ccc(N)cc1)cc(=O)n2C [compound 033]
IC50 [1]: < 1 µM | IC50 [2]: < 1 µM | IC50 at 48 h [3]: > 100 µM

Cc1ccc(Sc2cc(=O)n(C)c3cc(C)c(C)cc23)cc1 [compound 034]
IC50 [1]: < 1 µM | IC50 [2]: < 1 µM | IC50 at 48 h [3]: > 100 µM

Cc1cc2c(Sc3ccc(N)cc3)cc(=O)n(C)c2cc1C [compound 035]
IC50 [1]: < 1 µM | IC50 [2]: < 1 µM | IC50 at 48 h [3]: > 100 µM

Cc1ccc(NC(=S)Nc2ccc(Sc3cc(=O)n(C)c4ccc(C)cc34)cc2)cc1 [compound 036]
IC50 [1]: 1 to 10 µM | IC50 [2]: 1 to 10 µM | IC50 at 48 h [3]: > 100 µM

Cc1cc2c(Sc3ccc(F)cc3)cc(=O)n(C)c2cc1C [compound 037]
IC50 [1]: < 1 µM | IC50 [2]: < 1 µM | IC50 at 48 h [3]: > 100 µM

CCc1ccc2c(c1)c(Sc1ccc(N)cc1)cc(=O)n2C [compound 038]
IC50 [1]: < 1 µM | IC50 [2]: < 1 µM | IC50 at 48 h [3]: > 100 µM
